Patent publication US20080312209A1, “Piperazine Heteroaryl Derivatives as Gpr38 Agonists” (Glaxo Group Limited, priority 2005, published 2008)

Legend:
hGPR38R [1] = molecular target: T1, hGPR38R (Homo sapiens, UniProt O43193); experiment: GPR38 FLIPR functional agonist assay; format: cell-based; set-up: expressed in transfected cells; conditions: HEK-293 cells stably expressing the GPR38 receptor, agonist response, Fluo-4 fluorescence
Description: The potencies and efficacies of the compounds of this invention for GPR^38 can be determined by FLIPR assay performed on the human cloned receptor as described herein. It has been found, using the FLIPR functional assay, that compounds of formula (I) appear to be partial or full agonists of the GPR38 receptor.
GPR38FLIPR Functional Agonist Assay Protocol
HEK-293 cells stably expressing the GPR38 receptor were seeded (10,000 cells/well) into poly-D-lysine coated 384-well black-wall, clear-bottom microtitre plates (Becton Dickinson) 24 h prior to assay. On day of assay, cells were washed (×2) with 80 ul of assay buffer (Hanks Balanced Salts Solution (HBSS), 10 mM HEPES, 200 μM Ca^2+, 2.5 mM probenecid) using the EMBLA cell washer. After the final wash, buffer was aspirated to leave a residual volume of 30 ul on the cells. Cells were loaded with 1 μM (final) Fluo-4-AM fluorescent indicator dye (TefLabs) in assay buffer, (20 ul loading solution added to each well using the Multidrop). Plates were incubated for 1 h at 37° C., before being washed (×3) with 80 ul assay buffer using the EMBLA cell washer; 30 ul residual being left after the final wash. Plates were then assayed on a Fluorometric Imaging Plate Reader (FLIPR, Molecular Devices). Test compounds were prepared in assay buffer without probenecid, but containing 0.03% CHAPS. In the FLIPR, 10 ul of test compound was added to the cells and changes in fluorescence measured over a 2 min timeframe. Maximum change in fluorescence over baseline was used to determine agonist response and concentration response curves were constructed, using a 4-parameter logistic equation.
(§1) The following alternative procedure may also be used:
HEK-293 cells stably expressing the GPR38 receptor were seeded (30,000 cells/100 ul growth media/well) into poly-D-lysine coated 96-well black-wall, clear-bottom microtitre plates (Corning) 24 hours prior to assay. On the day of assay the cells were loaded with 2 μM (final) Fluo-4-AM fluorescent indicator dye (Molecular Probes) and 1 mM (final) probenicid in assay buffer (145 mM sodium chloride, 2.5 mM potassium chloride, 10 mM Hepes, 10 mM glucose, 1.2 mM magnesium chloride, 1.5 mM calcium chloride and 0.1% BSA) (50 ul loading solution added to each well). Plates were incubated for 1 hour at 25° C., before being washed 4 times with 100 ul assay buffer using the EMBLA cell washer; 150 ul residual being left after the final wash. The cells were then incubated at 25° C. for 20 minutes and the plates were then assayed on a Fluorometric Imaging Plate Reader (FLIPR, Molecular Devices). Test compounds were prepared in assay buffer without probenecid. In the FLIPR, 50 ul of test compound was added to the cells and changes in fluorescence measured over a 2 minute timeframe. Maximum change in fluorescence over baseline was used to determine agonist response and concentration response curves were constructed, using a 4-parameter logistic equation.
Target sequence in this assay (O43193 whole entry): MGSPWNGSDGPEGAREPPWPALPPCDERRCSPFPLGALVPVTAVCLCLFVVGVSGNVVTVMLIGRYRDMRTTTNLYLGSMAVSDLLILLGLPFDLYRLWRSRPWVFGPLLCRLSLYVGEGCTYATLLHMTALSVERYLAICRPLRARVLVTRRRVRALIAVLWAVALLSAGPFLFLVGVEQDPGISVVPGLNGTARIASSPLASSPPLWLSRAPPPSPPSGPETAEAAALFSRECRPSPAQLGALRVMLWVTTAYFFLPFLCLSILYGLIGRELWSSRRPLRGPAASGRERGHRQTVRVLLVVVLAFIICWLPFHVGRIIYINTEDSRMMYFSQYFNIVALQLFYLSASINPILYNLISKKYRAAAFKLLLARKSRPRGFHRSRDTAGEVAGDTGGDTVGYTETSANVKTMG

hGPR38R [2] = molecular target: T1, hGPR38R; experiment: GPR38 GTPγS functional agonist assay; format: biochemical; set-up: expressed in transfected cells; host or cells: HEK293 (transient transfection; P2 membrane fractions)
Description: The potencies and intrinsic activities of the compounds of this invention can also be determined according to the [35S]GTPγS functional assay which is described herein. It has been found, using the [35S]GTPγS functional assay, that compounds of formula (I) appear to be partial or full agonists of the GPR38 receptor.
GPR38GTPγS Functional Agonist Assay Protocol
For each compound being assayed, in an Opti clear bottom 96 well plate, is added:—
(a) 20 μl of test compound (or 10 μl of guanosine 5′-triphosphate (GTP) as non-specific binding control) diluted to required concentration in assay buffer (20 mM N-2-Hydroxyethylpiperazine-N′-2-ethanesulfonic acid (HEPES)+100 mM NaCl+10 mM MgCl2, pH adjusted to 7.4 with NaOH); (b) 60 μl bead/membrane/GDP mix prepared by suspending wheat germ agglutinin-polyvinyltoluene (WGA-PVT) scintillation proximity assay (SPA) beads at 100 mg/ml in assay buffer followed by mixing with membrane (prepared in accordance with the methodology described above) and diluting in assay buffer to give a final volume of 60 μl which contains 10 μg protein and 0.5 mg bead per well—mixture is pre-mixed at 4° C. for 30 min on a roller and just prior to addition to the plate, 10 μM final concentration of guanosine 5′ diphosphate (GDP—diluted in assay buffer) is added; (c) 20 μl guanosine 5′ [γ35-S]thiotriphosphate, triethylamine salt (Amersham; radioactivity concentration=37 kBq/μl or 1 mCi/ml; Specific Activity 1160 Ci/mmol) diluted to 1.9 nM in assay buffer to give 0.38 nM final.
The plate is incubated on a shaker at 25° C. for 30 min followed by centrifugation for 5 min at 1500 rpm. The plate is read between 3 and 6 h after completion of centrifuge run in a Wallac Microbeta counter on a 1 min normalised tritium count protocol. Data is analysed using a 4-parameter logistic equation. Basal activity used as minimum.
as §1
Target sequence in this assay (O43193 whole entry): as above
Target sequence in this assay (P09471 2-354 partner limits assumed): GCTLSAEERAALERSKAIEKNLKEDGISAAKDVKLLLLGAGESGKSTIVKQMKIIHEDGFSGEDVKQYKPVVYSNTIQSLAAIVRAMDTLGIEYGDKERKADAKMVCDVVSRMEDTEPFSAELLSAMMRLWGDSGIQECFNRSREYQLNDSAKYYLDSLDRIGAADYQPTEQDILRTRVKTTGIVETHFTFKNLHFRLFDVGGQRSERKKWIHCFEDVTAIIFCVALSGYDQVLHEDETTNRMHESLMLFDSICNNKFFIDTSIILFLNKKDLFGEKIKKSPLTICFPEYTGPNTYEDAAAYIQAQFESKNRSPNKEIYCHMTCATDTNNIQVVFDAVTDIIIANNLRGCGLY
Target sequence in this assay (P62873 2-340 partner limits assumed): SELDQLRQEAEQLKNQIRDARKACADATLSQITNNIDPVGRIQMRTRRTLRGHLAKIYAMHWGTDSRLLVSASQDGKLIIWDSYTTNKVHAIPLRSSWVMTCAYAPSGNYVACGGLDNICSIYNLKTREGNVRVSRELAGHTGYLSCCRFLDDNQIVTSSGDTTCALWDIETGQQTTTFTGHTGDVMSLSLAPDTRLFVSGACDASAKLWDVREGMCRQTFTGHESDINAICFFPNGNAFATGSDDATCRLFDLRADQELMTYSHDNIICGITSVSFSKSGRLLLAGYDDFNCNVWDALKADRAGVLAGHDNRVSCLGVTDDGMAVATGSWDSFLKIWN
Target sequence in this assay (P59768 2-68 partner limits assumed): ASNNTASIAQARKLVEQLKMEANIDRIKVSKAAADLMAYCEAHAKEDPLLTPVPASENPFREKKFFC
Membranes are derived from bulk cell cultures of HEK293 cell lines transiently transfected with hGPR38R and Go G-protein. P2 membranes fractions are prepared, aliquoted and stored at −80° C.
For each compound being assayed, the following is added into a white Greiner 384 well plate:—
(a) 1 μl of test compound diluted to required concentration in DMSO. (b) 20 μl bead/membrane/Saponin/GDP mix prepared as follows;—suspension of LEADseeker wheat germ agglutinin (WGA) scintillation proximity assay (SPA) beads at 25 mg/ml in assay buffer (20 mM N-2-Hydroxyethylpiperazine-N′-2-ethanesulfonic acid (HEPES)+100 mM NaCl+10 mM MgCl2, pH adjusted to 7.4 with KOH) containing saponin at 150 ug/ml. Mixing of bead suspension with membranes at 500 ug/ml (prepared in accordance with the methodology described above) and diluting in assay buffer to give a final volume of 20 μl which contains 5 μg protein and 0.25 mg bead per well.
Mixture is pre-mixed for 30 minutes on a roller and just prior to addition to the plate, 3 μM final assay concentration of guanosine 5′ diphosphate (GDP) (diluted in assay buffer) is added.
(c) 25 μl guanosine 5′ [γ35-S]thiotriphosphate, triethylamine salt (Amersham; radioactivity concentration=37 kBq/μl or 1 mCi/ml; Specific Activity 1160 Ci/mmol) diluted to 0.6 nM in assay buffer to give 0.33 nM final assay concentration.
The plate is then spun for 2 minutes at 1500 rpm and then incubated at room temperature for 4 hours. The plate is then read on a Viewlux Plux (Perkin Elmer). Data is analysed using a 4-parameter logistic equation.

[3] = read-out: pEC50 in the FLIPR assay (converted)
[4] = [35S]GTPγS SPA, HEK293 membranes with hGPR38R and Go G-protein, read-out: pEC50 in the GTPγS assay (converted)

Row | SMILES | EC50 (hGPR38R [1]; [3]) [µM] | EC50 (hGPR38R [2]; [4]) [µM] | EC50 (hGPR38R [1]; pEC50 in the FLIPR assay) [µM] | EC50 (hGPR38R [2]) [µM]
1 | C[C@@H]1CN(Cc2ccc(-c3cccnc3C(=O)N3CC[C@H](Oc4ccc(F)cc4)C3)cc2)C[C@H](C)N1 [Example 18, (3R,5S)-1-({4[2-({(3S)-3-[(4-fluorophenyl)oxy]-1-pyrrolidinyl}carbonyl)-3-pyridinyl]phenyl}methyl)-3,5-dimethylpiperazine] | < 0.316 | < 3.16 |  | 
2 | C[C@@H]1CN(Cc2ccc(-c3cccnc3C(=O)N3CCC(Nc4cccc(F)c4)C3)cc2)C[C@H](C)N1 (stereo partly drawn) [Example 33, 1-{[3-(4-{[(3R,5S)-3,5-dimethyl-1-piperazinyl]methyl}phenyl)-2-pyridinyl]carbonyl}-N-(3-fluorophenyl)-3-pyrrolidinamine] | < 0.316 | < 3.16 |  | 
3 | C[C@@H]1CN(Cc2ccc(-c3cccnc3C(=O)N3CCC(Nc4ccc(F)c(F)c4)CC3)cc2F)C[C@H](C)N1 [Example 12, N-(3,4-difluorophenyl)-1-{[3-(4-{[(3R,5S)-3,5-dimethyl-1-piperazinyl]methyl}-3-fluorophenyl)-2-pyridinyl]carbonyl}-4-piperidinamine] |  |  | < 0.316 | < 3.16
4 | C[C@@H]1CN(Cc2ccc(-c3cccnc3CN(C)C(=O)CCc3ccc(F)cc3)cc2)C[C@H](C)N1 [Example 3, N-{[3-(4{[(3R,5S)-3,5-Dimethyl-1-piperazinyl]methyl}phenyl)-2-pyridinyl]methyl}-3-(4-fluorophenyl)-N-methylpropanamide] | < 0.316 | < 3.16 |  | 
5 | COc1cc(-c2cccnc2C(=O)N2CCC(Nc3ccc(F)cc3)CC2)ccc1CN1C[C@@H](C)N[C@@H](C)C1 [Example 17] |  |  | < 0.316 | < 3.16
6 | C[C@@H]1CN(Cc2ccc(-n3ccnc3C(=O)N3CCC(Nc4ccc(F)cc4)CC3)cc2)C[C@H](C)N1 [Example 22, 1 {[1-(4-{[(3R,5S)-3,5-Dimethyl-1-piperazinyl]methyl}phenyl)-1H-imidazol-2-yl]carbonyl}-N-(4-fluorophenyl)-4-piperidinamine] |  |  | < 0.316 | < 3.16
7 | C[C@H]1CN(Cc2ccc(-c3cccnc3C(=O)N3CCC(Nc4cccc(F)c4)CC3)cc2)CCN1 [Example 14, N-(3-fluorophenyl)-1-{[3-(4-{[(3S)-3-methyl-1-piperazinyl]methyl}phenyl)-2-pyridinyl]carbonyl}-4-piperidinamine] |  |  | < 0.316 | < 3.16
8 | C[C@@H]1CN(Cc2ccc(-c3cccnc3C(=O)N3CCC(Oc4cccc(F)c4)CC3)cc2F)C[C@H](C)N1 [Example 35, (3R,5S)-1-({2-fluoro-4-[2-({4-[(3-fluorophenyl)oxy]-1-piperidinyl}carbonyl)-3-pyridinyl]phenyl}methyl)-3,5-dimethylpiperazine] | < 0.316 |  |  | 
9 | COc1cc(NC2CCN(C(=O)c3ncccc3-c3ccc(CN4C[C@@H](C)N[C@@H](C)C4)c(F)c3)CC2)ccc1F [Example 28, 1-{[3-(4-{[(3R,5S)-3,5-dimethyl-1-piperazinyl]methyl}-3-fluorophenyl)-2-pyridinyl]carbonyl}-N-[4-fluoro-3-(methyloxy)phenyl]-4-piperidinamine] | < 0.316 | < 3.16 |  | 
10 | C[C@@H]1CN(Cc2ccc(-c3cccnc3C(=O)N3CCC(Oc4cccc(F)c4)CC3)cc2)C[C@H](C)N1 [Example 34, (3R,5S)-1-({4-[2-({4-[(3-fluorophenyl)oxy]-1-piperidinyl}carbonyl)-3-pyridinyl]phenyl}methyl)-3,5-dimethylpiperazine] | < 0.316 | < 3.16 |  | 
11 | C[C@@H]1CN(Cc2ccc(-c3cccnc3C(=O)N3CCC(Nc4ccc(F)cc4)CC3)cc2)C[C@H](C)N1 [Example 2, (3R,5S)-3,5-Dimethyl-1-({4-[2-({4-[(4-fluorophenyl)amino]piperidin-1-yl}carbonyl)pyridin-3-yl]phenyl}methyl)piperazine] |  |  | < 0.316 | < 3.16
12 | C[C@H]1CN(Cc2ccc(-c3cccnc3C(=O)N3CCC(Nc4ccc(F)cc4)CC3)cc2)CCN1 [Example 8, N-(4-Fluorophenyl)-1-{[3-(4-{[(3S)-3-methyl-1-piperazinyl]methyl}phenyl)-2-pyridinyl]carbonyl}-4-piperidinamine] |  |  | < 0.316 | < 3.16
13 | C[C@@H]1CN(Cc2ccc(-c3cccnc3C(=O)N3CCC(Cc4ccc(F)cc4)CC3)cc2)C[C@H](C)N1 [Example 1, (3R,5S)-3,5-Dimethyl-1-({4-[2-({4-[(4-Fluorophenyl)methyl]piperidin-1-yl}carbonyl)pyridin-3-yl]phenyl}methyl)piperazine] | < 0.316 | < 3.16 |  | 
14 | C[C@@H]1CN(Cc2ccc(-c3cccnc3C(=O)N3CCC(Nc4ccccc4F)CC3)cc2)C[C@H](C)N1 [Example 31, 1-{[3-(4-{[(3R,5S)-3,5-dimethyl-1-piperazinyl]methyl}phenyl)-2-pyridinyl]carbonyl}-N-(2-fluorophenyl)-4-piperidinamine] |  |  | < 1 | < 3.16
15 | C[C@@H]1CN(Cc2ccc(-n3ccnc3C(=O)N3CCC(Nc4cccc(F)c4)CC3)cc2)C[C@H](C)N1 [Example 21, 1-{[1-(4-{[(3R,5S)-3,5-Dimethyl-1-piperazinyl]methyl}phenyl)-1H-imidazol-2-yl]carbonyl}-N-(3-fluorophenyl)-4-piperidinamine] |  |  | < 0.316 | < 3.16
